Test results published in publication PMC7570983, “Synthesis of Novel 2-(Isopropylamino)thiazol-4(5H)-one Derivatives and Their Inhibitory Activity of 11β-HSD1 and 11β-HSD2 in Aspect of Carcinogenesis Prevention” (Molecules, 2020).

Biological target: T1, 11β-HSD2 (Homo sapiens, UniProt P80365)
T1 construct: gene HSD11B2
T1 sequence (P80365 1-405): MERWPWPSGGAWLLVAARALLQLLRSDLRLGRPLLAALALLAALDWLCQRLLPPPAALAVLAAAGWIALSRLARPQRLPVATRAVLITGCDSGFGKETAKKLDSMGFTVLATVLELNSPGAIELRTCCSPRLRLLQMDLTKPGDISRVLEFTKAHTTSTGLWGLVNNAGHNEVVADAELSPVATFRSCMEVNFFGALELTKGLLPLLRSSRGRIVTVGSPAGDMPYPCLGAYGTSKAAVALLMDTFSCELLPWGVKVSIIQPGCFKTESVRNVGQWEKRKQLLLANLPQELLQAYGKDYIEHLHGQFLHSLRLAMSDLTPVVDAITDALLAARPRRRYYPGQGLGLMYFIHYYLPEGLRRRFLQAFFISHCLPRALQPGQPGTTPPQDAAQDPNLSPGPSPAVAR
Test: % inhibition at […], human kidney microsomes, cortisol ELISA
Format: cell-based
Conditions: read-out: % of 11β-HSD2 Inhibition 10 μM/IC50 [μM] ^a

inhibition at 10 µM: 47.1 ± 2.51%
SMILES: CCC1SC(NC(C)C)=NC1=O (stereo not shown) [3b, 5-Ethyl-2-(isopropylamino)thiazol-4(5H)-one]
